Experimental data published in US9611251B2, “Substituted piperidine compounds and their use as orexin receptor modulators” (Janssen Pharmaceutica NV, priority 2013, dated 2017).

Legend:
rat orexin 1 receptor = rat orexin 1 receptor (Rattus norvegicus, UniProt P56718); experiment: Rat orexin 1 receptor radioligand binding; conditions: rat orexin 1 receptor radioligand binding; averages of 2-20 runs; read-out: rOX1 Ki
Summary of the method: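 Cell-suspension competition binding used 4 nM final tritiated thiazolyl-pyrrolidinyl-methanone radioligand in PBS, ≤0.1% DMSO, with 10 µM almorexant defining nonspecific binding. Filter-bound radioactivity was counted in triplicate. IC50 came from one-site competition fits and was converted to Ki using the predetermined Kd.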

human orexin 1 receptor = human orexin 1 receptor (Homo sapiens, UniProt O43613); experiment: Human orexin 1 receptor radioligand binding; conditions: human orexin 1 receptor radioligand binding; averages of 2-20 runs; read-out: hOX1 Ki
Description: The in vitro affinity of the compounds of the invention for the rat/human orexin 1 and human orexin 2 receptors was determined by competitive radioligand binding using [^3H](1-(5-(2-fluoro-phenyl)-2-methyl-thiazol-4-yl)-1-((S)-2-(5-phenyl-(1,3,4)oxadiazol-2-ylmethyl)-pyrrolidin-1-yl)-methanone) (Langmead et al., 2004) and [^3H]EMPA (n-ethyl-2[96-methoxypyridin-3-yl)-(toluene-2-sulfonyl)-amino]-N-pyridin-3-ylmethyl acetamide), respectively (Langmead et al., 2004, British Journal of Pharmacology 141:340-346; Malherbe et al., 2004, British Journal of Pharmacology 156:1326-41).
Data are analyzed using pc-Sandy macro and graphed on Graphpad Prism 5. For analysis, each concentration point is averaged from triplicate values and the averaged values are plotted on Graphpad Prism. The IC50 was determined by applying the following equation (GraphPad Prism 5.0, SanDiego) for one site competition where X=log (concentration) and Y=specific binding. Top denotes the total [^3H]-(1-(5-(2-fluoro-phenyl)-2-methyl-thiazol-4-yl)-1-((S)-2-(5-phenyl-(1,3,4)oxadiazol-2-ylmethyl)-pyrrolidin-1-yl)-methanone) binding, bottom denotes the nonspecific [^3H]-(1-(5-(2-fluoro-phenyl)-2-methyl-thiazol-4-yl)-1-((S)-2-(5-phenyl-(1,3,4)oxadiazol-2-ylmethyl)-pyrrolidin-1-yl)-methanone) binding. Graphpad Prism calculates Ki value from IC50 and the pre-determined Kd values for [^3H]-(1-(5-(2-fluoro-phenyl)-2-methyl-thiazol-4-yl)-1-((S)-2-(5-phenyl-(1,3,4)oxadiazol-2-ylmethyl)-pyrrolidin-1-yl)-methanone) and [3H]-EMPA. The Ki for each compound is then uploaded into 3DX. Each run comprises individual compounds in triplicate.
Rat and Human Orexin 1 Receptor Radioligand Binding Studies
Human Embryonic Kidney 293 cells (HEK293) stably expressing rat orexin 1 receptor (Genebank accession number NM_001525) or Chinese ovary cells (CHO) stably expressing human orexin 1 receptor (Genebank accession number NM_001526) were grown to confluency in DMEM (Hyclone, cat #SH30022), 10% FBS, 1×Pen/Strep, 1× sodium pyruvate, 10 mM HEPES, 600 μg/mL G418 and DMEM/F12 (Gibco, Cat #11039), 10% FBS, 1×Pen/Strep, 600 μg/mL G418 media, respectively on 150 cm^2 tissue culture plates, washed with 5 mM EDTA in PBS (HyClone Dulbecco's Phosphate Buffered Saline 1× with Calcium and Magnesium, Cat #SH30264.01, hereafter referred to simply as PBS) and scraped into 50 ml tubes. After centrifugation (2K×G, 5 min at 4° C.), the supernatant was aspirated and the pellets frozen and stored at −80° C. Cells were resuspended in PBS in the presence of 1 tablet of protease inhibitor cocktail (Roche, Cat. #11836145001) per 50 mL. Each cell pellet from a 15 cm plate was resuspended in 10 mL, stored on ice, and homogenized for 45 sec prior to addition to the reactions. Competition binding experiments in 96 well polypropylene plates were performed using [^3H]-(1-(5-(2-fluoro-phenyl)-2-methyl-thiazol-4-yl)-1-((S)-2-(5-phenyl-(1,3,4)oxadiazol-2-ylmethyl)-pyrrolidin-1-yl)-methanone) (Moraveck Corporation, specific activity=35.3 Ci/mmol), diluted to a 10 nM concentration in PBS (4 nM final). […] The final concentration of DMSO in the reactions is equal to or less than 0.1%. Total and nonspecific binding was determined in the absence and presence of 10 μM almorexant. The total volume of each reaction is 200 μL (20 μL of diluted compounds, 80 μL of [^3H]-(1-(5-(2-fluoro-phenyl)-2-methyl-thiazol-4-yl)-1-((S)-2-(5-phenyl-(1,3,4)oxadiazol-2-ylmethyl)-pyrrolidin-1-yl)-methanone) diluted in PBS and 100 μL of the cell suspension). Reactions were run for 60 min at room temperature and terminated by filtration through GF/C filter plates (PerkinElmer, Cat. #6005174) presoaked in 0.3% polyethylenimine using the cell harvester (PerkinElmer Filtermate). The plates were washed 3 times by aspirating 30 ml PBS through the plates. Plates were dried in 55° C. oven for 60 min, scintillation fluid was added, and the radioactivity was counted on a Topcount (Packard).

human orexin 2 receptor = human orexin 2 receptor (Homo sapiens (Human), UniProt O43614); experiment: Human orexin 2 receptor radioligand binding ([3H]-EMPA); conditions: averages of 2-20 runs, read-out: hOX2 Ki
Summary of the method: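 Competition binding using homogenized HEK293 cells stably expressing human orexin 2 receptor, [3H]-EMPA at 2 nM final and ≤0.1% DMSO; nonspecific binding set with 10 μM almorexant. Filter-bound radioactivity counted by scintillation; one-site competition IC50 converted to Ki using pre-determined Kd, compounds run in triplicate.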

Chain of human orexin 2 receptor (O43614 whole entry): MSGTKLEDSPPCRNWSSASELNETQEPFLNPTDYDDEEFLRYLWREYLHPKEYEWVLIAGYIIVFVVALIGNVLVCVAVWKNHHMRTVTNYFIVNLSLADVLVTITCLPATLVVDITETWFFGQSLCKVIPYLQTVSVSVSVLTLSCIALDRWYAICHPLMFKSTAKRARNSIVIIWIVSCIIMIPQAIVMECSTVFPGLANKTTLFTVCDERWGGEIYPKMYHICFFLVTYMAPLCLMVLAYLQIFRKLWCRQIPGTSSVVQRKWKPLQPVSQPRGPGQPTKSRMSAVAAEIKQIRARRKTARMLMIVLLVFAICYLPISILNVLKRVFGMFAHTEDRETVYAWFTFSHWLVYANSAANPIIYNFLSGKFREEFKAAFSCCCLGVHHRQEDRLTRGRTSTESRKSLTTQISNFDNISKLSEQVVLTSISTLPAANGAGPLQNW

| Ki (rat orexin 1 receptor) | Ki (human orexin 1 receptor) | Ki (human orexin 2 receptor) | SMILES |
| --- | --- | --- | --- |
| 16 nM | 16 nM | 564 nM | C[C@H]1[C@H](Nc2nc3ccccc3o2)CCCN1C(=O)c1ccc(F)cc1-c1ncccn1 (relative stereo) [Example 206, ((2S*,3R*)-3-(benzo[d]oxazol-2-ylamino)-2-methylpiperidin-1-yl)(4-fluoro-2-(pyrimidin-2-yl)phenyl)methanone] |
| 67 nM | 34 nM | 1100 nM | C[C@H]1[C@H](Nc2cnc(C(F)(F)F)cn2)CCCN1C(=O)c1ccc(F)cc1-c1ncco1 (relative stereo) [Example 208, (4-fluoro-2-(oxazol-2-yl)phenyl)((2S*,3R*)-2-methyl-3-((5-(trifluoromethyl)pyrazin-2-yl)amino)piperidin-1-yl)methanone] |
| 16 nM | 25 nM | 944 nM | C[C@H]1[C@H](Nc2cnc(C(F)(F)F)cn2)CCCN1C(=O)c1ccc(F)cc1-c1ncccn1 (relative stereo) [Example 209, (4-fluoro-2-(pyrimidin-2-yl)phenyl)((2S*,3R*)-2-methyl-3-((5-(trifluoromethyl)pyrazin-2-yl)amino)piperidin-1-yl)methanone] |
| 16 nM | 24 nM | 293 nM | C[C@H]1[C@H](Nc2ccc(C(F)(F)F)cn2)CCCN1C(=O)c1ncccc1-c1ncccn1 (relative stereo) [Example 265, ((2S*,3R*)-2-methyl-3-((5-(trifluoromethyl)pyridin-2-yl)amino)piperidin-1-yl)(3-(pyrimidin-2-yl)pyridin-2-yl)methanone] |
| 12 nM | 16 nM | 2370 nM | Cc1cnc(C(=O)N2CCC[C@@H](Nc3ccc(C(F)(F)F)cn3)[C@@H]2C)c(-n2nccn2)c1 [Example 26, ((2S,3R)-2-methyl-3-((5-(trifluoromethyl)pyridin-2-yl)amino)piperidin-1-yl)(5-methyl-3-(2H-1,2,3-triazol-2-yl)pyridin-2-yl)methanone] |
| 41 nM | 60 nM | 4230 nM | Cc1cnc(C(=O)N2CCC[C@@H](Nc3ccc(Cl)cn3)[C@@H]2C)c(-c2ncco2)c1 [Example 77, ((2S,3R)-3-((5-chloropyridin-2-yl)amino)-2-methylpiperidin-1-yl)(5-methyl-3-(oxazol-2-yl)pyridin-2-yl)methanone] |
| 11 nM | 9 nM | 422 nM | COc1ccc(-n2nccn2)c(C(=O)N2CCC[C@@H](Nc3ncc(C(F)(F)F)cn3)[C@@H]2C)c1 [Example 89, (5-methoxy-2-(2H-1,2,3-triazol-2-yl)phenyl)((2S,3R)-2-methyl-3-((5-(trifluoromethyl)pyrimidin-2-yl)amino)piperidin-1-yl)methanone] |
| 33 nM | 34 nM | 4900 nM | COc1ccc(C(=O)N2CCC[C@@H](Nc3ccc(C(F)(F)F)cn3)[C@@H]2C)c(-n2nccn2)c1 [Example 97, (4-methoxy-2-(2H-1,2,3-triazol-2-yl)phenyl)((2S,3R)-2-methyl-3-((5-(trifluoromethyl)pyridin-2-yl)amino)piperidin-1-yl)methanone] |
| 192 nM | 269 nM | > 10000 nM | Cc1cnc(C(=O)N2CCC[C@@H](Oc3cnc(C(F)(F)F)cn3)[C@@H]2C)c(-n2nccn2)c1 [Example 105, ((2S,3R)-2-methyl-3-((5-(trifluoromethyl)pyrazin-2-yl)oxy)piperidin-1-yl)(5-methyl-3-(2H-1,2,3-triazol-2-yl)pyridin-2-yl)methanone] |
| 44 nM | 45 nM | 912 nM | C[C@H]1[C@H](Oc2cnc(C(F)(F)F)cn2)CCCN1C(=O)c1ccccc1-n1nccn1 [Example 106, (2-(2H-1,2,3-triazol-2-yl)phenyl)((2S,3R)-2-methyl-3-((5-(trifluoromethyl)pyrazin-2-yl)oxy)piperidin-1-yl)methanone] |
| 34 nM | 38 nM | 2300 nM | Cc1ccc(-n2nccn2)c(C(=O)N2CCC[C@@H](Oc3cnc(C(F)(F)F)cn3)[C@@H]2C)n1 [Example 107, ((2S,3R)-2-methyl-3-((5-(trifluoromethyl)pyrazin-2-yl)oxy)piperidin-1-yl)(6-methyl-3-(2H-1,2,3-triazol-2-yl)pyridin-2-yl)methanone] |
| 12 nM | 11 nM | 246 nM | C[C@H]1[C@H](Oc2ccc(C(F)(F)F)cn2)CCCN1C(=O)c1ccccc1-n1nccn1 [Example 110, (2-(2H-1,2,3-triazol-2-yl)phenyl)((2S,3R)-2-methyl-3-((5-(trifluoromethyl)pyridin-2-yl)oxy)piperidin-1-yl)methanone] |
| 22 nM | 31 nM | 5100 nM | Cc1cnc(C(=O)N2CCC[C@@H](Oc3ccc(C(F)(F)F)cn3)[C@@H]2C)c(-n2nccn2)c1 [Example 111, ((2S,3R)-2-methyl-3-((5-(trifluoromethyl)pyridin-2-yl)oxy)piperidin-1-yl)(5-methyl-3-(2H-1,2,3-triazol-2-yl)pyridin-2-yl)methanone] |
| 7 nM | 11 nM | 664 nM | Cc1ccc(C(=O)N2CCC[C@@H](Oc3ccc(C(F)(F)F)cn3)[C@@H]2C)c(-n2nccn2)c1 [Example 112, (4-methyl-2-(2H-1,2,3-triazol-2-yl)phenyl)((2S,3R)-2-methyl-3-((5-(trifluoromethyl)pyridin-2-yl)oxy)piperidin-1-yl)methanone] |
| 25 nM | 43 nM | 3900 nM | Cc1ccc(C(=O)N2CCC[C@@H](Oc3cnc(C(F)(F)F)cn3)[C@@H]2C)c(-n2nccn2)c1 [Example 113, (4-methyl-2-(2H-1,2,3-triazol-2-yl)phenyl)((2S,3R)-2-methyl-3-((5-(trifluoromethyl)pyrazin-2-yl)oxy)piperidin-1-yl)methanone] |
| 15 nM | 18 nM | 598 nM | C[C@H]1[C@H](Oc2ccc(C(F)(F)F)cn2)CCCN1C(=O)c1cccc(F)c1-c1ncccn1 [Example 116, (3-fluoro-2-(pyrimidin-2-yl)phenyl)((2S,3R)-2-methyl-3-((5-(trifluoromethyl)pyridin-2-yl)oxy)piperidin-1-yl)methanone] |
| 21 nM | 13 nM | 460 nM | C[C@H]1[C@H](Oc2ccc(C(F)(F)F)cn2)CCCN1C(=O)c1cccc(F)c1-n1nccn1 [Example 124, (3-fluoro-2-(2H-1,2,3-triazol-2-yl)phenyl)((2S,3R)-2-methyl-3-((5-(trifluoromethyl)pyridin-2-yl)oxy)piperidin-1-yl)methanone] |
